# Assay results from BindingDB's records for doi:10.1021/jm00086a008 (Wellcome Research Laboratories, 1992).
# Biological target: GAR transformylase (Sus scrofa)
# Test: In vitro inhibition of hog liver GAR transformylase with (6R)-10-formyl-FH4 as cofactor
row,IC50 [µM],SMILES
1,2.6,Nc1nc(N)c(CCCSc2ccc(C(=O)NC(CCC(=O)O)C(=O)O)cc2)c(=O)[nH]1 (centres undefined)
2,3.5,Nc1nc(N)c(CCCNc2ccc(C(=O)NC(CCC(=O)O)C(=O)O)cc2F)c(=O)[nH]1 (centres undefined)
3,5.3,Nc1nc(N)c(CCCOc2ccc(C(=O)NC(CCC(=O)O)C(=O)O)cc2)c(=O)[nH]1 (centres undefined)

# The next lines start with the compound.
row,SMILES,IC50 [µM]
1,Nc1nc(N)c(CCCNc2ccc(C(=O)NC(CCC(=O)O)C(=O)O)c(Cl)c2)c(=O)[nH]1 (centres undefined),6.6
2,Nc1nnc(C2CCN(c3ccc(C(=O)NC(CCC(=O)O)C(=O)O)cc3)C2=O)c(=O)[nH]1 (centres undefined),> 100
3,Cc1cc(C(=O)NC(CCC(=O)O)C(=O)O)ccc1NCCCc1c(N)nc(N)[nH]c1=O (centres undefined),6.1
4,Nc1nc(N)c(CCCNc2ccc(C(=O)NC(CCC(=O)O)C(=O)O)c(F)c2)c(=O)[nH]1 (centres undefined),3.1
5,Nc1nc[nH]c(=O)c1CCCNc1ccc(C(=O)NC(CCC(=O)O)C(=O)O)cc1 (centres undefined),52
6,Nc1nc(N)c(CCCCNc2ccc(C(=O)NC(CCC(=O)O)C(=O)O)cc2)c(=O)[nH]1 (centres undefined),18.2
